# Experimental data taken from ChEMBL document CHEMBL3124779, “Discovery of ABT-267, a pan-genotypic inhibitor of HCV NS5A” (J Med Chem, 2014).
# How the values were obtained:
# Hepatitis C virus [1] = test: Antiviral activity against HCV genotype 1 infected in human assessed as cure rate; format: functional, Hepacivirus hominis
# Hepatitis C virus [2] = test: Ratio of EC50 for HCV1b Con1 infected in human HuH7 cells in presence of 40% human plasma to EC50 for HCV1b Con1 infected in human HuH7 cells in absence of 40% human plasma; format: functional, Hepacivirus hominis, isolate Con1, Huh-7
# [3] = Kinetic solubility of the compound in 10 mM of phosphate buffer at pH 7.2 by CLND method; format: physicochemical; settings: read-out: Kinetic_solubility
# [4] = Oral bioavailability in monkey at 2.5 mg/kg; format: ADME, organism-based, Macaca mulatta; settings: rhesus monkey, in vivo
# [5] = AUC in rat at 3 mg/kg, po; format: ADME, organism-based; design: dose 3 mg/kg, route oral; settings: plasma
# Hepatitis C virus [6] = test: Ratio of EC50 for HCV1a H77 infected in human HuH7 cells in presence of 40% human plasma to EC50 for HCV1a H77 infected in human HuH7 cells in absence of 40% human plasma; format: functional, Hepacivirus hominis, genotype 1a H77, Huh-7
# [7] = Clearance in monkey at 1 mg/kg, iv; format: ADME, organism-based, Macaca mulatta; design: dose 1 mg/kg, route intravenous; settings: rhesus monkey, in vivo
# [8] = Volume of distribution at steady state in rat at 3 mg/kg, iv; format: ADME, organism-based; design: dose 3 mg/kg, route intravenous; settings: in vivo, read-out: Vdss
# [9] = Half life in monkey at 1 mg/kg, iv; format: ADME, organism-based, Macaca mulatta; design: dose 1 mg/kg, route intravenous; settings: rhesus monkey, in vivo
# [10] = Oral bioavailability in dog at 2.5 mg/kg; format: ADME, organism-based, Canis lupus familiaris; settings: in vivo
# [11] = Clearance in dog at 1 mg/kg, iv; format: ADME, organism-based, Canis lupus familiaris; design: dose 1 mg/kg, route intravenous; settings: in vivo
# [12] = Clearance in rat at 3 mg/kg, iv; format: ADME, organism-based; design: dose 3 mg/kg, route intravenous; settings: in vivo
# [13] = Cmax in rat at 3 mg/kg, po; format: ADME, organism-based; design: dose 3 mg/kg, route oral; settings: in vivo
# [14] = Oral bioavailability in rat at 3 mg/kg; format: ADME, organism-based; settings: in vivo
# [15] = Half life in rat at 3 mg/kg, po; format: ADME, organism-based; design: dose 3 mg/kg, route oral; settings: in vivo
# [16] = Volume of distribution at steady state in dog at 1 mg/kg, iv; format: ADME, organism-based, Canis lupus familiaris; design: dose 1 mg/kg, route intravenous; settings: in vivo, read-out: Vdss
# [17] = Half life in dog at 2.5 mg/kg, po; format: ADME, organism-based, Canis lupus familiaris; design: dose 2.5 mg/kg, route oral; settings: in vivo
# [18] = Half life in rat at 3 mg/kg, iv; format: ADME, organism-based; design: dose 3 mg/kg, route intravenous; settings: in vivo
# [19] = Lipophilicity, log D of the compound at pH 7.4 by HPLC analysis; format: physicochemical; settings: buffer
# [20] = Half life in monkey at 2.5 mg/kg, po; format: ADME, organism-based, Macaca mulatta; design: dose 2.5 mg/kg, route oral; settings: rhesus monkey, in vivo
# Hepatitis C virus [21] = test: Antiviral activity against HCV1b Con1 infected in human HuH7 cells assessed as inhibition of viral replication after 4 days by luciferase reporter gene assay in presence of 40% human plasma; format: functional, organism-based, Hepacivirus hominis; settings: isolate Con1, Huh-7, Plasma, 96 h
# [22] = Metabolic stability in human liver microsomes assessed as compound remaining after 30 mins; format: ADME; settings: read-out: Stability
# [23] = Volume of distribution at steady state in monkey at 1 mg/kg, iv; format: ADME, organism-based, Macaca mulatta; design: dose 1 mg/kg, route intravenous; settings: rhesus monkey, in vivo, read-out: Vdss
# [24] = Tmax in monkey at 2.5 mg/kg, po; format: ADME, organism-based, Macaca mulatta; design: dose 2.5 mg/kg, route oral; settings: rhesus monkey, in vivo
# [25] = Metabolic stability in rat liver microsomes assessed as compound remaining after 30 mins; format: ADME; settings: read-out: Stability
# [26] = Cmax in dog at 2.5 mg/kg, po; format: ADME, organism-based, Canis lupus familiaris; design: dose 2.5 mg/kg, route oral; settings: in vivo
# Hepatitis C virus [27] = test: Antiviral activity against HCV1a H77 infected in human HuH7 cells assessed as inhibition of viral replication after 4 days by luciferase reporter gene assay in presence of 40% human plasma; format: functional, organism-based, Hepacivirus hominis; settings: genotype 1a H77, Huh-7, Plasma, 96 h
# [28] = Tmax in dog at 2.5 mg/kg, po; format: ADME, organism-based, Canis lupus familiaris; design: dose 2.5 mg/kg, route oral; settings: in vivo
# Hepatitis C virus [29] = test: Antiviral activity against HCV1a H77 infected in human HuH7 cells assessed as inhibition of viral replication after 4 days by luciferase reporter gene assay; format: functional, organism-based, Hepacivirus hominis; settings: genotype 1a H77, Huh-7, 96 h
# [30] = Cmax in monkey at 2.5 mg/kg, po; format: ADME, organism-based, Macaca mulatta; design: dose 2.5 mg/kg, route oral; settings: rhesus monkey, in vivo
# [31] = AUC in dog at 2.5 mg/kg, po; format: ADME, organism-based, Canis lupus familiaris; design: dose 2.5 mg/kg, route oral; settings: plasma
# [32] = Tmax in rat at 3 mg/kg, po; format: ADME, organism-based; design: dose 3 mg/kg, route oral; settings: in vivo
# [33] = Half life in dog at 1 mg/kg, iv; format: ADME, organism-based, Canis lupus familiaris; design: dose 1 mg/kg, route intravenous; settings: in vivo
# [34] = AUC in monkey at 2.5 mg/kg, po; format: ADME, organism-based, Macaca mulatta; design: dose 2.5 mg/kg, route oral; settings: rhesus monkey, plasma
# Hepatitis C virus [35] = test: Antiviral activity against HCV1b Con1 infected in human HuH7 cells assessed as inhibition of viral replication after 4 days by luciferase reporter gene assay; format: functional, organism-based, Hepacivirus hominis; settings: isolate Con1, Huh-7, 96 h
Structure (SMILES),Activity (Hepatitis C virus [1]),Ratio EC50 (Hepatitis C virus [2]),solubility kinetic [3] [µM],bioavailability [4] [%],AUC [5] [ng·h/mL],Ratio EC50 (Hepatitis C virus [6]),clearance [7] [mL/min/kg],Vd [8] [L/kg],half-life [9] [min],bioavailability [10] [%],clearance [11] [mL/min/kg],clearance [12] [mL/min/kg],Cmax [13] [ng/mL],bioavailability [14] [%],half-life [15] [min],Vd [16] [L/kg],half-life [17] [min],half-life [18] [min],logD [19],half-life [20] [min],also measured
CCC[C@H](NC(=O)[C@@H]1[C@H]2CCC[C@H]2CN1C(=O)[C@@H](NC(=O)[C@@H](NC(=O)c1cnccn1)C1CCCCC1)C(C)(C)C)C(=O)C(=O)NC1CC1,<=75%,,,,,,,,,,,,,,,,,,,,
COC(=O)N[C@H](C(=O)N1CCC[C@H]1C(=O)Nc1ccc([C@H]2CC[C@H](c3ccc(NC(=O)[C@@H]4CCCN4C(=O)[C@@H](NC(=O)OC)C(C)(C)C)cc3)N2c2ccc(F)cc2)cc1)C(C)(C)C,,20,3.9,18,10200,18,15.5,1,276,94,2.17,1.67,960,39,420,1.6,618,450,5.2,324,EC50 (Hepatitis C virus [21]): 0.162 nM; remaining at 0.5 h [22]: 54%; Vd [23]: 4.1 L/kg; Tmax [24]: 1.7 h; remaining at 0.5 h [25]: 69%; Cmax [26]: 1070 ng/mL; EC50 (Hepatitis C virus [27]): 20.8 nM; Tmax [28]: 2.7 h; EC50 (Hepatitis C virus [29]): 1.18 nM; Cmax [30]: 120 ng/mL; AUC [31]: 18300 ng·h/mL; Tmax [32]: 2.3 h; half-life [33]: 546 min; AUC [34]: 490 ng·h/mL; EC50 (Hepatitis C virus [35]): 0.008 nM
COC(=O)N[C@H](C(=O)N1CCC[C@H]1C(=O)Nc1ccc([C@H]2CC[C@H](c3ccc(NC(=O)[C@@H]4CCCN4C(=O)[C@@H](NC(=O)OC)C(C)C)cc3)N2c2ccc(F)cc2)cc1)C(C)C,,5,6,10,6360,4,51.7,0.5,48,62,21.7,2.17,1380,22,168,1.9,132,198,4.6,36,EC50 (Hepatitis C virus [21]): 0.208 nM; remaining at 0.5 h [22]: 38%; Vd [23]: 1.5 L/kg; Tmax [24]: 1.5 h; remaining at 0.5 h [25]: 38%; Cmax [26]: 420 ng/mL; EC50 (Hepatitis C virus [27]): 11.1 nM; Tmax [28]: 1.2 h; EC50 (Hepatitis C virus [29]): 2.53 nM; Cmax [30]: 50 ng/mL; AUC [31]: 1280 ng·h/mL; Tmax [32]: 1.3 h; half-life [33]: 120 min; AUC [34]: 80 ng·h/mL; EC50 (Hepatitis C virus [35]): 0.042 nM
CC(C)(C)NC(=O)N[C@H](C(=O)N1C[C@H]2[C@@H]([C@H]1C(=O)NC(CC1CCC1)C(=O)C(N)=O)C2(C)C)C(C)(C)C (stereo not given in full) [BOCEPREVIR],<=75%,,,,,,,,,,,,,,,,,,,,
